Test results as given in ChEMBL document CHEMBL1157759, “Discovery of GS-9131: Design, synthesis and optimization of amidate prodrugs of the novel nucleoside phosphonate HIV reverse transcriptase (RT) inhibitor GS-9148” (Bioorg Med Chem, 2010).

What was measured:
[1] = system: Human immunodeficiency virus 1; assay: Antiviral activity against HIV1 3B infected in human MT2 cells assessed as inhibition of virus-induced cytopathic effect after 5 days by XTT assay; assay type: functional, organism-based
[2] = system: PBMC; assay: Metabolic stability in cathepsin A-overexpressing human PBMC assessed as compound degradation per ug of protein at 10 uM after 120 mins by scintillation counting; details: 2 h, 30 µM
[3] = organism: Homo sapiens; assay: in vitro; details: plasma
[4] = Half life in dog hepatocytes at 2 uM by LC/MS/MS analysis
[5] = Hydrolytic stability assessed as compound degradation per ug of protein at 10 uM after 90 mins by scintillation counting in presence of human recombinant cathepsin A; details: 1.5 h
[6] = Metabolic stability in dog plasma assessed as compound remaining after 60 mins
[7] = Cytotoxicity against human MT2 cells after 5 days by XTT assay
[8] = Half life in human hepatocytes at 2 uM by LC/MS/MS analysis
[9] = Half life in dog intestine S9 fraction at 2 uM by LC/MS/MS analysis; details: intestine S9 fraction, t1/2
[10] = Human immunodeficiency virus 1, 3B, MT2, 120 h

Compound	EC50 [1, 10] [nM]	Activity [2] [pmol/min]	Activity [5] [pmol/min]	CC50 at 120 h [7] [nM]	other results
CCCOC(=O)[C@H](C)NP(=O)(CO[C@@H]1C=C(F)[C@H](n2cnc3c(N)ncnc32)O1)N[C@@H](C)C(=O)OCCC	1060	–	–	–	–
CC(C)COC(=O)[C@H](C)NP(=O)(CO[C@@H]1C=C(F)[C@H](n2cnc3c(N)ncnc32)O1)Oc1ccccc1 (stereo partly drawn)	58	–	–	–	–
CC[C@H](NP(=O)(CO[C@@H]1C=C(F)[C@H](n2cnc3c(N)ncnc32)O1)N[C@@H](CC)C(=O)OC(C)C)C(=O)OC(C)C	> 2000	0.05	0	–	remaining at 1 h [3]: 100%; half-life at 2 µM [4]: 11.5 h; remaining at 1 h [6]: 100%
CCCCSC(=O)[C@@H](Cc1ccccc1)NP(=O)(CO[C@@H]1C=C(F)[C@H](n2cnc3c(N)ncnc32)O1)Oc1ccccc1 (stereo partly drawn)	141	2.1	1510	> 100000	half-life at 2 µM ([4]; t1/2): 0.933 h
CCCOC(=O)[C@H](Cc1ccccc1)NP(=O)(CO[C@@H]1C=C(F)[C@H](n2cnc3c(N)ncnc32)O1)Oc1ccccc1 (stereo partly drawn)	4.9	–	–	–	–
CCCCCOC(=O)[C@H](C)NP(=O)(CO[C@@H]1C=C(F)[C@H](n2cnc3c(N)ncnc32)O1)Oc1ccccc1 (stereo partly drawn)	33	6.7	5088	27000	half-life at 2 µM ([4]; t1/2): 0.95 h
Nc1ncnc2c1ncn2[C@@H]1O[C@H](OCP(=O)(N[C@@H](Cc2ccccc2)C(=O)OCC2CC2)Oc2ccccc2)C=C1F (stereo partly drawn)	7.5	41	39270	> 100000	half-life at 2 µM ([8]; t1/2): 0.667 h; half-life at 2 µM ([4]; t1/2): 0.283 h
CC(C)OC(=O)[C@H](C)NP(=O)(CO[C@@H]1C=C(F)[C@H](n2cnc3c(N)ncnc32)O1)Oc1ccccc1 (stereo in doubt; 18s) [(2S)-ISOPROPYL 2-(((2R,5R)-5-(6-AMINO-9H-PURIN-9-YL)-4-FLUORO-2,5-DIHYDROFURAN-2-YLOXY)(PHENOXY)PHOSPHORYLAMINO)PROPANOATE (ENANTIOMERIC MIX)]	–	0.3	216	–	EC50 ([1]; mt2): 728 nM; half-life at 2 µM ([4]; t1/2): 1.47 h
CC(C)COC(=O)[C@H](Cc1ccccc1)NP(=O)(CO[C@@H]1C=C(F)[C@H](n2cnc3c(N)ncnc32)O1)OCC(F)(F)F (stereo partly drawn)	119	22	30107	> 100000	half-life at 2 µM [4]: 0.45 h
CC(C)OC(=O)CNP(=O)(CO[C@@H]1C=C(F)[C@H](n2cnc3c(N)ncnc32)O1)NCC(=O)OC(C)C	> 2000	–	–	–	–
CCOC(=O)[C@H](C)NP(=O)(CO[C@@H]1C=C(F)[C@H](n2cnc3c(N)ncnc32)O1)N[C@@H](C)C(=O)OCC	723	–	–	–	–
CCC(CC)OC(=O)[C@H](C)NP(=O)(CO[C@@H]1C=C(F)[C@H](n2cnc3c(N)ncnc32)O1)Oc1ccccc1 (stereo partly drawn)	662	0	0	8350	–
CC[C@H](NP(=O)(CO[C@@H]1C=C(F)[C@H](n2cnc3c(N)ncnc32)O1)N[C@@H](CC)C(=O)OCC(C)C)C(=O)OCC(C)C	128	1.3	867	–	half-life at 2 µM [4]: 1.18 h
CCCOC(=O)[C@H](Cc1ccccc1)NP(=O)(CO[C@@H]1C=C(F)[C@H](n2cnc3c(N)ncnc32)O1)N[C@@H](Cc1ccccc1)C(=O)OCCC	5.2	20	27642	–	–
C[C@H](NP(=O)(CO[C@@H]1C=C(F)[C@H](n2cnc3c(N)ncnc32)O1)Oc1ccccc1)C(=O)OCC1CCC1 (stereo partly drawn)	25	–	–	–	–
CC[C@H](NP(=O)(CO[C@@H]1C=C(F)[C@H](n2cnc3c(N)ncnc32)O1)Oc1ccccc1)C(=O)OCC(C)C (stereo partly drawn)	103	1.9	728	> 100000	half-life at 2 µM ([4]; t1/2): 2.12 h
CCCCOC(=O)[C@H](Cc1ccccc1)NP(=O)(CO[C@@H]1C=C(F)[C@H](n2cnc3c(N)ncnc32)O1)N[C@@H](Cc1ccccc1)C(=O)OCCCC	8.4	50	66680	4800	half-life at 2 µM [4]: 0.167 h

Compound	EC50 [1, 10] [nM]	Activity [2] [pmol/min]	Activity [5] [pmol/min]	CC50 at 120 h [7] [nM]	other results
CCCOC(=O)[C@H](C)NP(=O)(CO[C@@H]1C=C(F)[C@H](n2cnc3c(N)ncnc32)O1)Oc1ccccc1 (stereo partly drawn)	52	26	19103	31000	half-life at 2 µM ([4]; t1/2): 1.47 h
CC(C)COC(=O)CNP(=O)(CO[C@@H]1C=C(F)[C@H](n2cnc3c(N)ncnc32)O1)NCC(=O)OCC(C)C	1610	0	0	> 100000	–
Nc1ncnc2c1ncn2[C@@H]1O[C@H](OCP(=O)(N[C@@H](Cc2ccccc2)C(=O)OCC2CCC2)Oc2ccccc2)C=C1F (stereo partly drawn)	3.8	24	37017	46500	half-life at 2 µM ([8]; t1/2): 1.03 h; half-life at 2 µM [9]: 3.4 min; half-life at 2 µM ([4]; t1/2): 0.383 h
Nc1ncnc2c1ncn2[C@@H]1O[C@H](OCP(=O)(N[C@@H](Cc2ccccc2)C(=O)OC2CCC2)Oc2ccccc2)C=C1F (stereo partly drawn)	20	–	–	–	–
CCOC(=O)[C@H](Cc1ccccc1)NP(=O)(CO[C@@H]1C=C(F)[C@H](n2cnc3c(N)ncnc32)O1)N[C@@H](Cc1ccccc1)C(=O)OCC	8.9	40	41020	–	–
CCOC(=O)[C@H](C)NP(=O)(CO[C@@H]1C=C(F)[C@H](n2cnc3c(N)ncnc32)O1)Oc1ccccc1 (stereo partly drawn) [(2S)-ETHYL 2-((((2R,5R)-5-(6-AMINO-9H-PURIN-9-YL)-4-FLUORO-2,5-DIHYDROFURAN-2-YLOXY)METHYL)(PHENOXY)PHOSPHORYLAMINO)PROPANOATE (ENANTIOMERIC MIX)]	–	–	–	–	EC50 ([1]; mt2): 96 nM
CCCCOC(=O)[C@H](C)NP(=O)(CO[C@@H]1C=C(F)[C@H](n2cnc3c(N)ncnc32)O1)Oc1ccccc1 (stereo partly drawn)	92	7.3	6183	91000	half-life at 2 µM ([4]; t1/2): 1.05 h
CCOC(=O)[C@H](C)OP(=O)(CO[C@@H]1C=C(F)[C@H](n2cnc3c(N)ncnc32)O1)Oc1ccccc1 (stereo partly drawn)	2000	–	–	–	–
CCOC(=O)[C@H](C)NP(=O)(CO[C@@H]1C=C(F)[C@H](n2cnc3c(N)ncnc32)O1)Oc1ccccc1 (stereo partly drawn) [listing 1 of 2 here]	–	–	–	–	EC50 ([1]; mt2): 157 nM
CC(C)COC(=O)[C@H](C)NP(=O)(CO[C@@H]1C=C(F)[C@H](n2cnc3c(N)ncnc32)O1)N[C@@H](C)C(=O)OCC(C)C	119	2.1	1770	> 100000	half-life at 2 µM [4]: 3.22 h
CC(C)OC(=O)[C@H](Cc1ccccc1)NP(=O)(CO[C@@H]1C=C(F)[C@H](n2cnc3c(N)ncnc32)O1)Oc1ccccc1 (stereo partly drawn)	63	–	–	–	–
CC(C)COC(=O)CNP(=O)(CO[C@@H]1C=C(F)[C@H](n2cnc3c(N)ncnc32)O1)Oc1ccccc1 (stereo partly drawn)	1120	0.72	226	22000	–
CCCCOC(=O)[C@H](CC)NP(=O)(CO[C@@H]1C=C(F)[C@H](n2cnc3c(N)ncnc32)O1)Oc1ccccc1 (stereo partly drawn)	88	1.4	1377	70000	half-life at 2 µM ([4]; t1/2): 1.52 h
CCOC(=O)[C@H](C)NP(=O)(CO[C@@H]1C=C(F)[C@H](n2cnc3c(N)ncnc32)O1)OCC(F)(F)F (stereo partly drawn)	1050	0.69	1132	> 100000	half-life at 2 µM [8]: 3.08 h; half-life at 2 µM [4]: 1.43 h
C[C@H](NP(=O)(CO[C@@H]1C=C(F)[C@H](n2cnc3c(N)ncnc32)O1)Oc1ccccc1)C(=O)OCC1CC1 (stereo partly drawn)	59	–	–	–	–
CCOC(=O)[C@H](C)NP(=O)(CO[C@@H]1C=C(F)[C@H](n2cnc3c(N)ncnc32)O1)Oc1ccccc1 (stereo partly drawn) [listing 2 of 2 here]	–	–	–	–	EC50 ([1]; mt2): 262 nM
C[C@H](NP(=O)(CO[C@@H]1C=C(F)[C@H](n2cnc3c(N)ncnc32)O1)Oc1ccccc1)C(=O)OC1CCCC1 (stereo partly drawn)	63	3	5688	> 100000	–
